Data as given in patent publication US20180133148A1, “Degradable Microparticles for Protein and Small Molecule Delivery” (Georgia Tech Research Corporation, priority 2016, published 2018).

Assays:
[1] = FTY720 loading and release from degradable heparin-based MPs (plate reader); type: physicochemical
Experimental: FTY720 was loaded onto degradable heparin-based MPs. The amount of FTY720 that was loaded onto the MPs was then assayed via plate reader. In three separate groups, additional amounts of FTY720, i.e. 5 μg, 10 μg and 20 μg, were then added. […] For each of the three separate groups, the extent of FTY720 release was assayed via plate reader each day over 7 days. […] The black line refers to the batch with 20 μg added. The dark blue line refers to the batch with 10 μg added. The light blue line refers to the batch with 5 μg added.

[2] = tested on: plasmin; experiment: Plasmin inhibition assay (TSG-6 anti-plasmin activity); type: biochemical
Experimental: To assess TSG-6 bioactivity after release from MPs, the plasmin inhibition assay protocol was followed with day 1 TSG-6 release supernatant (11 ng/mL) and compared to a soluble TSG-6 control at the same concentration (11 ng/mL); n=3-5.
Without wishing to be bound by theory, it may be that the sulfate groups removed, the N sulfate group for Hep^−N and the N and […] for Hep−, are necessary for complete heparin binding to TSG-6 and the subsequent enhancement of TSG-6 bioactivity.

[3] = tested on: articular cartilage of the medial tibial plateau; experiment: EPIC-μCT of tibial articular cartilage, medial meniscal transection model; type: in vivo, Sprague-Dawley rats
[4] = tested on: articular cartilage; experiment: Safranin-O histology of tibiae, medial meniscal transection model; type: in vivo, Sprague-Dawley rats; details: 3 weeks following MMT injury
Source text: Medial meniscal transection (MMT) injury was induced using a similar method to previously established protocols. Willett N. J. et al., Arthritis Res Ther. 2014; 16(1):R47. Male Sprague-Dawley rats (250-300 g initial weight and 8-10 weeks old) were used in accordance with protocols approved by the Georgia Institute of Technology Institutional Animal Care and Use Committee. Prior to surgery animals were anesthetized by 5% isoflurane (Isothesia), followed by 2-3% isoflurane during surgery and were administered sustained release buprenorphine as an analgesic. Next, a small incision was made through the skin on the medial aspect of the left femoral-tibial joint. The medial collateral ligament was exposed by blunt dissection and transected to visualize the joint space and medial meniscus. The meniscus was then transected completely at its narrowest point. The skin was sutured with 4.0 silk sutures (Ethicon) and then closed using wound clips.
For TSG-6 loaded MP treatment, MPs were loaded as described above but 3.6 mg MPs were resuspended in a total volume of 50 μL sterile 0.1 wt % BSA PBS solution and subsequently loaded into sterile syringes. 1, 7, and 15 days following MMT injury, MPs were delivered via intra-articular injection through the infrapatellar ligament and into the stifle joint of the left leg. For soluble TSG-6 controls, 16.7 μg TSG-6 was dissolved in a total volume of 50 μL sterile 0.1 wt % BSA PBS solution, loaded into sterile syringes, and delivered using the same method as TSG-6 loaded MPs. Overall, in vivo experimental groups included TSG-6 loaded MPs (18 μg TSG-6 loaded onto 10.8 mg MPs delivered over 3 time points; n=3), soluble TSG-6 (50 μg TSG-6 delivered over 3 time points; n=3) or injury only (no TSG-6 or MPs; n=4). Contralateral tibiae served as uninjured controls.
Following μCT, tibiae were decalcified in Cal-Ex II (Fisher) for 10 days, then processed for histology sectioning as described previously. Tellier L. E. et al. Localized SDF-1 Delivery Increases Pro-Healing Bone Marrow-Derived Cells in the Supraspinatus Muscle Following Severe Rotator Cuff Injury. […]

[5] = TSG-6 with soluble heparin derivative, or TSG-6 alone
[6] = 21 days following MMT injury, compared to uninjured control

Row | Compound | Loading efficiency of FTY720 ([1]; of the originally added amount of FTY720, 5, 10, 20 μg added) | Total amount of FTY720 released from MPs ([1]; over 7 days, dependent on amount originally added) [µg] | Plasmin activity compared to plasmin control [2, 5] [%] | Effect on TSG-6 anti-plasmin activity compared to TSG-6 alone ([2]; soluble heparin derivatives, in words) | Plasmin activity compared to plasmin control ([2]; day 1 release supernatant or soluble control, 11 ng/mL TSG-6) [%] | Cartilage fibrillation (contrast-enhanced μCT imaging) ([3]; 3 weeks following MMT injury) | Cartilage attenuation [3, 6] [×] | Cartilage thickness [3, 6] [×] | Cartilage volume [3, 6] [×] | Improvement of cartilage degeneration following injury [4] | Proteoglycan loss (Safranin-O stained sections) [4] | Safranin-O staining of GAG within cartilage [4]
1 | CCCCCCCCc1ccc(CCC(N)(CO)CO)cc1 [FTY720] | 35-80% | 0.5 to 5 | – | – | – | – | – | – | – | – | – | –
2 | fully desulfated heparin [Hep−, reference compound] | – | – | 69.6±1.2 | no significant effect | – | – | – | – | – | – | – | –
3 | soluble TSG-6: human TNF-α-stimulated gene-6, positively charged 35 kDa protein (R&D Systems) | – | – | 74.6±0.2 | – | 96.4±3.1 | cartilage fibrillation is present | 1.6±0.2 | 1.5±0.2 | 1.9±0.5 | unable to improve cartilage degeneration | proteoglycan loss is observed | Less intense safranin-O staining was observed
